Publication PMC6066355, “Probing the binding site of novel selective positive allosteric modulators at the M1 muscarinic acetylcholine receptor” (Biochemical Pharmacology, 2018)
Where a chain is given by its changes, count along the chain named. Where two headings read alike, the source gives them in different places.

What was measured:
Assay in all cases: Whole cell [3H]NMS binding inhibition/interaction assay (ACh ± PAM), FlpIn CHO cells
W400^7.35A M1 mAChR = molecular target: T1, W400^7.35A M1 mAChR (Homo sapiens, UniProt P11229, W400A); details: affinity and cooperativity could not be estimated
T1 construct: expressed in transfected cells
T1 sequence (P11229 1-460 W400A): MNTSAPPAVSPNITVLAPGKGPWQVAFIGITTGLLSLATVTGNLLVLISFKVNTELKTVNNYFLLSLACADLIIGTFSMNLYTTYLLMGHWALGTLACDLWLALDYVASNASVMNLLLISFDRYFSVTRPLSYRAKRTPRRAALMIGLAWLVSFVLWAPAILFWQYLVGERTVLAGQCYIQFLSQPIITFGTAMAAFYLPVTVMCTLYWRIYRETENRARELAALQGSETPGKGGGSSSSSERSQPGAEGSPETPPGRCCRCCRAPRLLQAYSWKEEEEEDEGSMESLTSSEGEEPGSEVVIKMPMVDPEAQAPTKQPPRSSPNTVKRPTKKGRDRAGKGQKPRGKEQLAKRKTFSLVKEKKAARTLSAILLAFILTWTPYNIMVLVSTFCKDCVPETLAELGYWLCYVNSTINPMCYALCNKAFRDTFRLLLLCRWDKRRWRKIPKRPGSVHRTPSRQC
Experimental: (§1) Saturation binding assays were performed to estimate the expression levels and equilibrium dissociation constant of the radioligand (KD). FlpIn CHO cells stably expressing the WT or mutant c-myc hM1 mAChRs were plated at the density of 25,000 per well of 96-well white clear bottom Isoplates (PerkinElmer Life Sciences, Boston, MA), and grown overnight at 37 °C. […] Atropine at the final concentration of 100 µM was used to determine non-specific binding. The assays were terminated by rapid removal of the radioligand, and two washes with 100 µl/well ice-cold 0.9% NaCl buffer.
(§2) All data were analysed using GraphPad Prism 7 (San Diego, CA). […] Binding interaction studies between orthosteric agonists and allosteric modulators were fitted to the following allosteric ternary complex model (Eq. (1)):(1) Y=BmaxD/D+KDKB/α^′B+KB1+I/KI+B/KB+αIB/KIKB where Bmax is the total number of receptors, [D], [B] and [I] denote the concentrations of radioligand, allosteric ligand, and orthosteric ligand, respectively, and KD, KB and KI represent their respective equilibrium dissociation constants. α′ and α are the cooperativity factors between the allosteric ligand and radioligand or orthosteric ligand, respectively.

Y179^ECL2A M1 mAChR = molecular target: T2, Y179^ECL2A M1 mAChR (Homo sapiens, UniProt P11229, Y179A); details: affinity and cooperativity could not be estimated
T2 construct: expressed in transfected cells
T2 sequence (P11229 1-460 Y179A): T1 sequence (P11229 1-460 W400A) with Y179A, A400W
Experimental: as §1, §2

F77^2.56I M1 mAChR = molecular target: T3, F77^2.56I M1 mAChR (Homo sapiens, UniProt P11229, F77I); details: for Logα NMS (logarithm of binding cooperativity between [3H]NMS and modulator): constrained to −2 where preferred model by F-test
T3 construct: expressed in transfected cells
T3 sequence (P11229 1-460 F77I): T1 sequence (P11229 1-460 W400A) with F77I, A400W
Experimental: as §1, §2

WT M1 mAChR = molecular target: T4, WT M1 mAChR (Homo sapiens, UniProt P11229); details: for Logα NMS (logarithm of binding cooperativity between [3H]NMS and modulator): constrained to −2 where preferred model by F-test
T4 construct: expressed in transfected cells
T4 sequence (P11229 1-460): T1 sequence (P11229 1-460 W400A) with A400W
Experimental: as §1, §2

| Modulatory effect on ACh inhibition of [3H]NMS binding (W400^7.35A M1 mAChR) | Modulatory effect on ACh inhibition of [3H]NMS binding (Y179^ECL2A M1 mAChR) | Logα NMS (logarithm of binding cooperativity between [3H]NMS and modulator) (F77^2.56I M1 mAChR; F77^2.56I) | Logα ACh (logarithm of binding cooperativity between ACh and modulator) (WT M1 mAChR; WT) | Logα NMS (logarithm of binding cooperativity between [3H]NMS and modulator) (WT M1 mAChR; WT) | Logα ACh (logarithm of binding cooperativity between ACh and modulator) (F77^2.56I M1 mAChR; F77^2.56I) | α ACh (binding cooperativity with ACh, antilog in brackets) (F77^2.56I M1 mAChR; F77^2.56I) | α NMS (binding cooperativity with [3H]NMS, antilog in brackets) (F77^2.56I M1 mAChR; F77^2.56I) | Kb (F77^2.56I M1 mAChR; F77^2.56I, allosteric ternary complex model, 0.3 nM [3H]NMS, read-out: pKB (negative logarithm of the allosteric modulator equilibrium dissociation constant) (converted)) [nM] | Kb (WT M1 mAChR; WT, allosteric ternary complex model, 0.3 nM [3H]NMS, read-out: pKB (negative logarithm of the allosteric modulator equilibrium dissociation constant) (converted)) [nM] | Compound | Kb (F77^2.56I M1 mAChR) [nM] | Kb (WT M1 mAChR) [nM] | α ACh (binding cooperativity with ACh, antilog in brackets) (WT M1 mAChR; WT) |
| --- | --- | --- | --- | --- | --- | --- | --- | --- | --- | --- | --- | --- | --- |
| completely abolished | completely abolished | −1.02 ± 0.12 | 1.40 ± 0.08 | −1.05 ± 0.06 | 1.83 ± 0.14 | 44.7 | 0.06 | 417 | 309 | Cc1cnc(C(=O)N[C@H]2CCOC[C@@H]2O)cc1Cc1ccc(-c2cscn2)cc1 [PF-06767832, N-((3R,4S)-3-hydroxytetrahydro-2H-pyran-4-yl)-5-methyl-4-(4-(thiazol-4-yl)benzyl)pyridine-2-carboxamide] | – | – | – |
| completely abolished | completely abolished | = −2 | 1.60 ± 0.08 | = −2 | 1.60 ± 0.09 | 25.7 | – | – | – | Cn1cc(-c2ccc(COc3ccccc3-c3cc(=O)n(C4CCCCC4O)cn3)cc2)cn1 (stereo not drawn) [MIPS1780, 3-(2-hydroxycyclohexyl)-6-(2-((4-(1-methyl-1H-pyrazol-4-yl)-benzyl)oxy)phenyl)pyrimidin-4(3H)-one] | 661 | 661 | – |

| Compound | Modulatory effect on ACh inhibition of [3H]NMS binding (W400^7.35A M1 mAChR) | Modulatory effect on ACh inhibition of [3H]NMS binding (Y179^ECL2A M1 mAChR) | Logα NMS (logarithm of binding cooperativity between [3H]NMS and modulator) (F77^2.56I M1 mAChR; F77^2.56I) | Logα ACh (logarithm of binding cooperativity between ACh and modulator) (WT M1 mAChR; WT) | Logα NMS (logarithm of binding cooperativity between [3H]NMS and modulator) (WT M1 mAChR; WT) | Logα ACh (logarithm of binding cooperativity between ACh and modulator) (F77^2.56I M1 mAChR; F77^2.56I) | α ACh (binding cooperativity with ACh, antilog in brackets) (F77^2.56I M1 mAChR; F77^2.56I) | α NMS (binding cooperativity with [3H]NMS, antilog in brackets) (F77^2.56I M1 mAChR; F77^2.56I) | Kb (F77^2.56I M1 mAChR; F77^2.56I, allosteric ternary complex model, 0.3 nM [3H]NMS, read-out: pKB (negative logarithm of the allosteric modulator equilibrium dissociation constant) (converted)) [nM] | Kb (WT M1 mAChR; WT, allosteric ternary complex model, 0.3 nM [3H]NMS, read-out: pKB (negative logarithm of the allosteric modulator equilibrium dissociation constant) (converted)) [nM] | Kb (F77^2.56I M1 mAChR) [nM] | Kb (WT M1 mAChR) [nM] | α ACh (binding cooperativity with ACh, antilog in brackets) (WT M1 mAChR; WT) |
| --- | --- | --- | --- | --- | --- | --- | --- | --- | --- | --- | --- | --- | --- |
| Cn1cc(-c2ccc(Cn3cc(C(=O)N[C@H]4CCCC[C@@H]4O)c4c(F)cc(F)cc43)cn2)cn1 [VU6004256, 4,6-difluoro-N-(1S,2S)-2-hydroxycyclohexyl-1-((6-(1-methyl-1H-pyrazol-4-yl)pyridine-3-yl)methyl)-1H-indole-3-carboxamide] | completely abolished | completely abolished | = −2 | 1.40 ± 0.09 | = −2 | – | – | – | – | – | 417 | 479 | 15.5 |
